“Also recorded” adds a separate entry of the source.
How the values were obtained:
Helicobacter pylori [1] = assay: TLC overlay assay of neoglycolipids (reductively aminated oligosaccharides); format: binding
Excerpt: The Helicobacter pylori binding oligosaccharide sequence has been reported in the structure GlcNAcβ3Galβ4GlcNAcβ6GalNAc from human gastric mucins. […] Therefore the preferred oligosaccharide sequences include O-glycans and analogues of O-glycan sequences such as GlcNAcβ3Galβ4GlcNAcβ6GlcNAc/GalNAc/Gal, GleNAcβ3Galβ4GlcNAcβ6GlcNAc/GalNAc/GalαSer/Thr, GlcNAcβ3Galβ4GlcNAcβ6(Gal/GlcNAcβ3)GlcNAc/GalNAc/GalαSer/Thr and glycopeptides and glycopeptide analogs comprising the O-glycan sequences. Even sequences lacking the non-reducing end GlcNAc may have some activity. Based on this all the other Helicobacter pylori binding oligosaccharide sequences (OS) and especially the trisaccharide epitopes are also especially preferred when linked from the reducing end to form structures OSβ6Gal(NAc)0-1 or OSβ6Glc(NAc)0-1 or OSβ6Gal(NAc)0-1Ser/Thr or OSβ6Glc(NAc)0-1αSer/Thr. The Ser or Thr-compounds or analogue thereof or the reducing oligosaccharides are also preferred when linked to a polyvalent carrier. The reducing oligosaccharides can be reductively linked to the polyvalent carrier.
TLC bacterial overlay assay. Thin-layer chromatography was performed on glass- or aluminum-backed silica gel 60 HPTLC plates (Merck, Darmstadt, Germany) using chloroform/methanol/water 60:35:8 (by volume) as solvent system. Chemical detection was accomplished by anisaldehyde stainig (Waldi, 1962). The bacterial overlay assay was performed as described previously (Hansson et al., 1985). Glycosphingolipids (1-4 μg/lane, or as indicated in the figure legend) were chromatographed on aluminum-backed silica gel plates and thereafter treated with 0.3-0.5% polyisobutylmethaerylate in diethylether/n-hexane 1:3 (by volume) for 1 min, dried and subsequently soaked in PBS containing 2% bovine serum albumin and 0.1% Tween 20 for 2 h A suspension of radio-labeled bacteria (diluted in PBS to 1×10^8 CFU/ml and 1-5×10^6 cpm/ml) was sprinkled over the chromatograms and incubated for 2 h followed by repeated rinsings with PBS. After drying the chromatograms were exposed to XAR-5 X-ray films (Eastman Kodak Co., Rochester, N.Y., USA) for 12-100 h.
0.6 mg of pentasaccharide was obtained after HPLC-purcation steps, the saccharide was more than 98% pure when analyzed by mass spectrometry. Part of the pentasaccharide and maltoheptaose (Sigma, Saint Louis, USA) were reductively aminated with 4-hexadecylamnie (abbreviation HDA, from Aldrich, Stockholm, Sweden) by cyanoborohydride (Halina Miller-Podraza, to be published later). […]

[2] = test system: Helicobacter pylori (strain 032); assay: TLC bacterial overlay assay: binding of radiolabeled Helicobacter pylori to glycosphingolipids separated on thin-layer chromatograms; conditions: for Helicobacter pylori binding activity of glycosphingolipid (in words): TLC overlay with 35S-labeled bacteria, autoradiography; for binding frequency for Helicobacter pylori: strain 032, total number of plates about 100
Helicobacter pylori [3] = assay: Semi-quantitative TLC overlay test with dilution series of glycosphingolipids; format: binding; conditions: evaluated visually after overlay with labeled bacteria and autoradiography

Compound	Helicobacter pylori binding activity of glycosphingolipid (in words) [2]	other results
CCCCCCCCCCCCCCCCc1ccc(NC[C@H](O)[C@@H](O)[C@H](O[C@@H]2O[C@H](CO)[C@H](O)[C@H](O[C@@H]3O[C@H](CO)[C@@H](O[C@@H]4O[C@H](CO)[C@H](O)[C@H](O[C@@H]5O[C@H](CO)[C@@H](O)[C@H](O)[C@H]5NC(C)=O)[C@H]4O)[C@H](O)[C@H]3NC(C)=O)[C@H]2O)[C@H](O)CO)cc1 [GlcNAcβ3Galβ4GlcNAcβ3Galβ4Glc(red)-HDA]		binding activity of neoglycolipid with regard to Helicobacter pylori (in words) (Helicobacter pylori [1]): observable binding activity
CC(=O)N[C@H]1[C@H](OC[C@H]2OC(O)[C@H](O)[C@@H](O)[C@H]2O)O[C@H](CO)[C@@H](O[C@@H]2O[C@H](CO)[C@H](O)[C@H](O[C@@H]3O[C@H](CO)[C@@H](O)[C@H](O)[C@H]3NC(C)=O)[C@H]2O)[C@@H]1O (some centres unmarked) [GlcNAcβ3Galβ4GlcNAcβ6Gal]		binding activity of neoglycolipid with regard to Helicobacter pylori (in words) (Helicobacter pylori [1]): some binding activity
CC(=O)N[C@H]1[C@H](OC[C@H]2OC(O)[C@H](NC(C)=O)[C@@H](O)[C@@H]2O)O[C@H](CO)[C@@H](O[C@@H]2O[C@H](CO)[C@H](O)[C@H](O[C@@H]3O[C@H](CO)[C@@H](O)[C@H](O)[C@H]3NC(C)=O)[C@H]2O)[C@@H]1O (some centres unmarked) [GlcNAcβ3Galβ4GlcNAcβ6GlcNAc]		binding activity of neoglycolipid with regard to Helicobacter pylori (in words) (Helicobacter pylori [1]): high affinity binding
Fucα2Galβ4GlcNAcβ3Galβ4Glcβ1Cer [No. 18]	absence of binding	
GalNAcα3(Fucα2)Galβ4GlcNAcβ3Galβ4Glcβ1Cer [No. 22]	non-binding	
GalNAcβ3Galα3Galβ4GlcNAcβ3Galβ4Glcβ1Cer [No. 25]	non-binding	
GalNAcβ3Galβ4GlcNAcβ3Galβ4Glcβ1Cer [No. 11]	binding was also found	
Galα3(Fucα2)Galβ4GlcNAcβ3Galβ4Glcβ1Cer [No. 23]	non-binding	
Galα3Galβ4GlcNAcβ3Galβ4Glcβ1Cer [No. 13]	binding-active	
Galα4Galβ4GlcNAcβ3Galβ4Glcβ1Cer [No. 15]	absence of binding	
Galβ4GlcNAcβ3Galβ4GlcNAcβ3Galβ4Glcβ1Cer [No. 21]	displayed binding activity	amount of glycolipid giving a positive response on TLC plates (binding of Helicobacter pylori) (Helicobacter pylori [3]): ~0.2 nmol/spot; binding frequency for Helicobacter pylori [2]: ~90%
Galβ4GlcNAcβ3Galβ4Glcβ1Cer [No. 5]	displayed binding activity	amount of glycolipid giving a positive response on TLC plates (binding of Helicobacter pylori) (Helicobacter pylori [3]): ~0.3 nmol/spot
Galβ4Glcβ1Cer [diglycosylceramide]	displayed binding activity	
GlcNAcβ3Galβ4GlcNAcβ3Galβ4Glcβ1Cer [No. 10]		amount of glycolipid giving a positive response on TLC plates (binding of Helicobacter pylori) (Helicobacter pylori [3]): 0.039 nmol/spot; Helicobacter pylori binding activity of glycosphingolipid (in words) ([2]; listed as pentaglycosylceramide): strong activity; also recorded: displayed binding activity; binding frequency for Helicobacter pylori [2]: ~90%
GlcNAcβ3Galβ4Glcβ1Cer [No. 1]	inactive	
NeuAcα3GalNAcβ3Galβ4GlcNAcβ3Galβ4Glcβ1Cer [No. 24]	non-binding	
NeuGcα3Galβ4GlcNAcβ3Galβ4GlcNAcβ3Galβ4Glcβ1Cer [No. 27]		binding by Helicobacter pylori isolates ([2]; about 60 isolates tested): bound by most Helicobacter pylori isolates
maltoheptaose(red)-HDA [maltoheptaose/red)-HDA, reference compound]		binding activity of neoglycolipid with regard to Helicobacter pylori (in words) (Helicobacter pylori [1]): totally inactive

Reference: patent US20040180850A1, “Methods and compositions for treatment of gastric diseases” (priority 2001, published 2004)
